Experimental data from patent US20210023065A1, “AMPHIPHILIC THIOL COMPOUNDS AND USES THEREOF” (THE REGENTS OF THE UNIVERSITY OF CALIFORNIA, priority 2018, published 2021).

What was measured:
Format in all cases: cell-based
endogenous HRas = molecular target: T1, endogenous HRas (Homo sapiens, UniProt P01112); test: Acyl resin-assisted capture detection of HRas palmitoylation in HeLa cells; details: for depalmitoylation of HRas: HeLa cells, 20 min, 1 at 1.25 μmol/10^7 cells, same experiments with TCEP alone or compound 2
T1 construct: endogenous in cells; host or cells: HeLa
T1 sequence (P01112 whole entry): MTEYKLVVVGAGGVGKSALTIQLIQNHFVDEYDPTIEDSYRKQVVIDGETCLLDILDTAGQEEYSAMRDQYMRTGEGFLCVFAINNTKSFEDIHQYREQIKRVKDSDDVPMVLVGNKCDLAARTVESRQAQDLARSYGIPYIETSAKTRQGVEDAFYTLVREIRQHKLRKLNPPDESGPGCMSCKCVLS
Protocol: HeLa cells were grown to confluency in 10 cm plates. Stock solutions of compounds were prepared in DMSO as before and diluted to the final indicated concentration in 5.5 mL of OptiMEM media before adding to cells. Cells were incubated at 37° C. for 20 min and then media removed and 3 mL of HBSS added to each plate. Cells were detached using a cell scraper, pelleted by centrifugation at 1,000 rcf for 5 min and the pellet processed using a CAPTUREome S-Palmitoylated Protein Kit (Badrilla, UK) according to the manufacturer's protocol. Samples were resolved by electrophoresis using 4-20% SDS-polyacrylamide gels (Bio-Rad) under denaturing and reducing conditions. Proteins were then electrotransferred to a PVDF membrane (Bio-Rad). The membrane was blocked with 3% BSA and then subjected to immunoblot analysis using Anti-GTPase HRAS antibody (ab97488) (Abcam), Calnexin Antibody (2433S) (Cell Signaling Technology), Gα(i) Antibody (5290S) (Cell Signaling Technology), SNAP25 Antibody (5308S) (Cell Signaling Technology), Flotillin-2 Antibody (3436S) (Cell Signaling Technology), CD44 Antibody (3570S) (Cell Signaling Technology), Lyric/Metadherin Antibody (14065S) (Cell Signaling Technology), Flotillin-1 Antibody (3253S) (Cell Signaling Technology) and secondary goat anti-rabbit IgG-HRP (sc-2030) (Santa Cruz Biotechnology) or goat anti-mouse IgG HRP (ThermoFisher). Chemiluminescent detection was performed by using SuperSignal West Pico PLUS chemiluminescent substrate (ThermoFisher) according to the manufacturer's instructions.
(§1) Assays were performed in 3 biological replicates. Each replicate involved the analysis of 4 to 5 conditions side-by-side. Western blots were analyzed using ImageJ^1. The intensity of the protein band in each cleaved bound fraction (palmitoylated protein fraction) was normalized to the intensity of the corresponding input fraction (total protein fraction). The values within individual S 4 replicates were normalized to the control or vehicle condition and reported as means±SD. An unpaired t test was performed to determine the significance between means.

GAP43 = molecular target: T2, GAP43 (Homo sapiens, UniProt P17677); test: Acyl resin-assisted capture detection of GAP43 palmitoylation in INCL lymphoblasts; details: 0.05 μmol/10^7 cells, 24 h
T2 construct: Western blot detection of endogenous GAP43 in acyl resin-assisted capture fractions; host or cells: INCL human lymphoblasts
T2 sequence (P17677 1-238): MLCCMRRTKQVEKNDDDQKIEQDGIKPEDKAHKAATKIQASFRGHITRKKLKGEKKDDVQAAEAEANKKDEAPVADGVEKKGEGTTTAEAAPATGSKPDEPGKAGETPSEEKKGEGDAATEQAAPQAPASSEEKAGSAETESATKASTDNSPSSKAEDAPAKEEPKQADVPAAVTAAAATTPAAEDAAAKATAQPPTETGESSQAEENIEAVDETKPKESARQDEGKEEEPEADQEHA
Protocol: INCL Lymphoblasts were adjusted to 1,000,000 cells/mL in 20 mL of OptiMem Media. Stock solutions of compounds were prepared in DMSO as before and diluted to the indicated final concentration in the cell suspension. […] Cells were pelleted by centrifugation at 1,000 rcf for 5 min and the pellet processed using a CAPTUREome S-Palmitoylated Protein Kit (Badrilla, UK) according to the manufacturer's protocol. Samples were resolved by electrophoresis using 4-20% SDS-polyacrylamide gels (Bio-Rad) under denaturing and reducing conditions. Proteins were then electrotransferred to a PVDF membrane (Bio-Rad). The membrane was blocked with 3% BSA and then subjected to immunoblot analysis using GAP-43 (B-5) Antibody (sc-17790) (Santa Cruz Biotechnology) and secondary antibody goat anti-mouse IgG HRP (ThermoFisher). Chemiluminescent detection was performed by using SuperSignal West Pico PLUS chemiluminescent substrate (ThermoFisher) according to the manufacturer's instructions.
as §1

EGFP-HRas = molecular target: T3, EGFP-HRas (Homo sapiens, UniProt P01112); test: Live-cell imaging of EGFP-HRas localization in HeLa cells; details: HeLa cells, 1.25 μmol/10^7 cells, 20 min
T3 construct: host or cells: HeLa
T3 sequence (P01112 1-186 limits assumed): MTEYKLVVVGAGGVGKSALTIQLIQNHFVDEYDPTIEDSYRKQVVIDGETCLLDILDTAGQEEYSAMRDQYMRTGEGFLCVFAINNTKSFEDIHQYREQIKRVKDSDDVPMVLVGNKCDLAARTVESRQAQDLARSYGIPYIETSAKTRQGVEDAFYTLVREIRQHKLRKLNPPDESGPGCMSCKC
Protocol: Imaging was performed on an Axio Observer Z1 inverted microscope (Carl Zeiss Microscopy Gmb, Germany) with Yokogawa CSU-X1 spinning disk confocal unit using a 63×, 1.4 NA oil immersion or 20×, 0.8 NA objective to an ORCA-Flash4.0 V2 Digital CMOS camera (Hamamatsu, Japan). For live cell imaging, an incubation chamber with temperature and CO2 controllers (World Precision Instruments) was utilized. Fluorophores were excited with s diode laser (488 nm; 30 mW). Images were acquired using Zen Blue software (Carl Zeiss) and processed using Image J.^1
HeLa cells were plated at 40,000 cells/well in an 8-well Lab-Tek chamber slide (ThermoFisher) and allowed to adhere overnight. Cells were transfected with mEGFP-HRas or mEGFP-KRas4b using Lipofectamine 2000 (ThermoFisher) according to the manufacturer's protocol. 50 mM stocks of compounds 1 and 2 were prepared by dissolving the solid compound in DMSO containing 100 mM tris(2-S 3 carboxyethyl)phosphine hydrochloride (TCEP) as a preservative. From these stocks, a solution of 200 μM [1 or 2] (with 400 μM TCEP), or 400 μM TCEP was prepared in OptiMEM media. Before imaging, cells were exchanged into OptiMEM media. The diluted solutions were added to the indicated final concentration within individual wells of the chamber slide and cells imaged while maintaining 37° C., 5% CO2 in the incubation chamber. Images were acquired in 6 different locations across a minimum of 2 independent experiments. […] An unpaired t test was performed to determine the significance of the means before and after treatment.

In the case of CCCCCCCCCC[C@@H]1C(=O)O[C@H]1CCc1ccc(OC)c(OC)c1 [PB, palmostatin B, reference compound], the “depalmitoylation of HRas by PB alone” value (endogenous HRas; HeLa cells treated with PB, without 1) was “no significant depalmitoylation”.
With Cl.O=C(O)CCP(CCC(=O)O)CCC(=O)O [TCEP, tris(2-carboxyethyl)phosphine hydrochloride, reference compound] the “level of GAP43 palmitoylation” value (GAP43) was “did not result in a significant change”, the “depalmitoylation of HRas” value (endogenous HRas) was “no significant depalmitoylation” and the “EGFP-HRas localization at the plasma membrane (fluorescence)” value (EGFP-HRas) was “no change in fluorescence localization”.
With CCCCCCCCNC(=O)[C@@H](N)CO [compound 2, H2N-L-Ser-Oct, reference compound] the “level of GAP43 palmitoylation” value (GAP43) was “did not result in a significant change”, the “depalmitoylation of HRas” value (endogenous HRas) was “no significant depalmitoylation” and the “EGFP-HRas localization at the plasma membrane (fluorescence)” value (EGFP-HRas) was “no change in fluorescence localization”.
